Measurements published in patent publication US5792796A, “Methods for treating anxiety and panic” (Warner-Lambert Company, priority 1995, dated 1998).

Legend:
rats = assay: Rat conflict test
Procedure: Male Hooded Lister rats (200-250 g) were obtained from Interfauna (Huntingdon, UK) and male TO mice (20-25 g) were obtained from Bantin and Kingman (Hull, UK). Both rodent species were housed in groups of six. Ten Common Marmosets (Callithrix Jacchus) weighing between 280 and 360 g, bred at Manchester University Medical School (Manchester, UK) were housed in pairs. All animals were housed under a 12-hour light/dark cycle (lights on at 07.00 hour) and with food and water ad libitum.
Rats were trained to press levers for food reward in operant chambers. The schedule consisted of alternations of four 4-minute unpunished periods on variable interval of 30 seconds signalled by chamber lights on and three 3-minute punished periods on fixed ratio 5 (by footshock concomitant to food delivery) signalled by chamber lights off. The degree of footshock was adjusted for each rat to obtain approximately 80% to 90% suppression of responding in comparison with unpunished responding. Rats received saline vehicle on training days.
The results are expressed as mean percent increase or decrease of lever pressing (vertical bars represent ±SEM) of at least 5 animals per group on test day compared with mean performances obtained the 2 previous days following vehicle administration.
*p <0.05, **p <0.01 (paired Student t-test).

glycine/NMDA receptor = conditions: previous radioligand binding studies; cited from earlier work
[1] = in vivo; cited from earlier work
[2] = in vivo; cited from earlier work; remark: listed apart in the source

Row | SMILES | increase in lever pressing in the punished period (rats; 3 mg/kg (minimum effective dose), 40 minutes before test) | maximal effect, increase in lever pressing in the punished period (rats; 30 mg/kg, 40 minutes before test) | minimal effective dose (rats; Rattus norvegicus, 40 min, read-out: minimum effective dose (MED) for increased lever pressing in the punished period) | unpunished responding (rats; any of the doses tested (1-100 mg/kg)) | binding to the glycine/NMDA receptor (glycine/NMDA receptor) | reduction in lever pressing in the unpunished period (indicating sedation/ataxia) (rats; 100 mg/kg (highest dose tested)) | metabolism in the body [1] | penetration of the blood-brain barrier [2]
1 | CNC1=Nc2ccc(Cl)cc2C(c2ccccc2)=[N+]([O-])C1 [chlordiazepoxide] | 128.4% | 330.0% | 3 mg/kg | not reduced |  |  |  | 
2 | NCC1(CC(=O)O)CCCCC1 [gabapentin, 1-(aminomethyl)cyclohexaneacetic acid] |  |  |  |  | does not bind | 37.4% | not metabolized | readily penetrates
